Structures can show the parent of a compound that is named as a salt.
Columns and labels:
PBQ Writhing = experiment: Phenylbenzoquinone (PBQ) induced writhing (pain); assay type: in vivo; details: Mus musculus, po; p.o. 1 hour before PBQ 2.5 mg/kg i.p.; female mice
Protocol: (§1) The compound of Example 1 was subjected to the following tests. Results are given in Table II as ED50 mg/kg upon oral administration. Results are also provided by way of comparison for the compound 3-methylamino-1-(3-trifluoromethylphenyl)-2-pyrazoline (Compound A) which is disclosed in European Specification 55 418.
Writhing was induced in groups of 5 female mice (20-25g) following the intraperitoneal injection of phenylbenzoquinone (PBQ; 2.5 mg/kg). Anti-nociceptive effects of drugs were assessed by observing the reduction in writhing responses 10-12½ min after PBQ injection. Drugs were administered orally in aqueous solution 1 hour before PBQ injection and drug effects were expressed as a percentage of control values obtained from animals receiving vehicle alone.

Carrageenin Oedema = experiment: Carrageenin-induced hind paw oedema; assay type: in vivo; details: Rattus norvegicus, po; female rats, sub-plantar 2% carrageenin, swelling measured 1-4 hours after injection
Protocol: as §1
Oedema was induced by the sub-plantar injection of 2% carrageenin (0.1 ml) in the hind paws of female rats (100-i30g). Swelling was measured 1-4 hours following carrageenin injection using a micrometer gauge. Drugs in aqueous solution were administered orally to groups of five rats at the time of carrageenin injection. Mean swelling was expressed as a percentage of control values obtained from similar groups of animals receiving vehicle alone.

total leucocyte numbers = experiment: Leucocyte accumulation in carrageenin sponge inflammatory exudate; assay type: in vivo; details: Rattus norvegicus, po, male rats, sponges impregnated with 2% carrageenin, exudates collected 24 hours after implantation, read-out: ED50 (mg/kg p.o.) Leucocyte Migration (rat)
Protocol: as §1
(§2) Inflammatory exudates were collected 24 hours after the subcutaneous implantation in male rats (180-220g) of sterile polyester sponges impregnated with 2% carrageenin. Prostaglandin E2 concentrations in sponge exudates were measured by bioassay and total leucocyte numbers were estimated using counting chambers and phase contrast microscopy. Drugs were administered orally in aqueous solution to groups of five animals at the time of sponge implantation, 5-8 hours later and 3 hours before sponge removal. Results are expressed as a percentage of control values obtained from similar groups of animals receiving vehicle alone. ED50 values were calculated for active compounds. The full dose-response data for lead compounds were subjected to regression analysis and ED50 values with 95% confidence limits have been obtained.

[1] = system: Prostaglandin E2 concentrations in sponge exudates; experiment: Prostaglandin synthesis in carrageenin sponge inflammatory exudate; assay type: in vivo; details: Rattus norvegicus, po; male rats, sponges impregnated with 2% carrageenin, exudates collected 24 hours after implantation; read-out: ED50 (mg/kg p.o.) Prostaglandin Production (rat)
Protocol: as §1, §2

Cyclooxygenase = experiment: Enzyme assay, inhibition of cyclooxygenase (method closely based on Borgeat et al); assay type: biochemical
Toxicity: ulcerogenicity = assay type: in vivo; details: rat, doses in the range 50-100 mg/kg

`CNC1=NN(c2cccc(C(F)(F)F)c2)CC1` [Compound A, 3-methylamino-1-(3-trifluoromethylphenyl)-2-pyrazoline, reference compound] gave an ED50 (PBQ Writhing) of 20 mg/kg, an ED50 (Carrageenin Oedema) of 26 mg/kg and an ED50 (total leucocyte numbers) of 20 mg/kg. The ED50 [1] was 20 mg/kg.

In the case of `CSc1cccc(N2CCC(N)=N2)c1` [Example 1, 3-amino-1-(3-methylthiophenyl)-2-pyrazoline], the ED50 (PBQ Writhing) is reported as 15 mg/kg, the ED50 (Carrageenin Oedema) is reported as 20 mg/kg and the ED50 (total leucocyte numbers) is reported as 6.5 mg/kg. For the same compound, the IC50 (Cyclooxygenase) was 4.7 µM, the ulcerogenic (Toxicity: ulcerogenicity) was “not to be ulcerogenic” and the ED50 [1] was 14 mg/kg.

`CNC1=NN(c2cccc(SC)c2)CC1` [Example 3, 3-methylamino-1-(3-methylthiophenyl)-2-pyrazoline hydrobromide] showed an IC50 (Cyclooxygenase) of 10 µM.

In the case of `C#CCNC1=NN(c2cccc(SC)c2)CC1` [Example 7, 1-(3-Methylthiophenyl)-3-(2-propynylamino)-2-pyrazoline hydrochloride], the IC50 (Cyclooxygenase) is reported as > 1 µM.

Source: patent EP0119449A1, “Aminopyrazoline derivatives” (THE WELLCOME FOUNDATION LIMITED, priority 1983, dated 1984)
